Results on three compounds are retold here after patent US10342846B2, “Nanoparticle drug delivery systems” (University of Notre Dame du Lac, priority 2013, dated 2019).

“Also recorded” adds a separate entry of the source. Like-named read-outs stand apart in the source and are kept apart here.

A short description of series [1]: MM xenograft mouse model, body weight / systemic toxicity. Format: in vivo, C.B.-17 SCID mice. The conditions noted are these: 1 mg/kg bortezomib equivalent, intravenous, days 1, 4, 8, and 11. Here is the method:
MM Xenograft Mouse Model. C.B.-17 SCID mice (Harlan Laboratories) were irradiated with 150 rad and were inoculated subcutaneously with 5×10^6 NCI-H929 cells. When tumors were palpable, mice were distributed into 6 groups of 5 mice and were treated intravenously with the various bortezomib pro-drugs, free bortezomib, or vehicle (PBS), on days 1, 4, 8, and 11. Animals were monitored for body weight and tumor volume.
Liposomal Pro-Drugs Inhibit Tumor Growth with Reduced Systemic Toxicity In Vivo. […] Thus, in vivo studies were performed on C.B-17 SCID mice injected with NCI-H929 tumors to evaluate the efficacy of the liposomal pro-drugs in inhibiting tumor growth and limiting toxicity. The mice were divided into six groups (control, free bortezomib, and one group for each pro-drug) of five mice. The mice were monitored for body weight and tumor volume every other day. When the tumors became palpable, intravenous injections of the respective bortezomib formulations at a dose of 1 mg/kg bortezomib equivalent nanoparticles were performed on days 1, 4, 8, and 11.

The test system of series [2] is MCF7 cells (very low HER2 expression). Briefly: Cellular binding assay, flow cytometry (MCF7). The conditions noted are these: fluorescein labeled peptide, negative control cell line. How it is done: (§1) HER2 or VLA-4 Expression Analysis and Cell-Based Peptide Binding Assays. For antibody binding assays, cells were incubated with the primary antibody in binding buffer (1.5% BSA in PBS pH 7.4) on ice for 1 hour and were washed twice. Fluorescein conjugated secondary antibody was added for 1 hour on ice, samples were washed, and analyzed on Guava easyCyte 8HT flow cytometer (Millipore). For cell-based peptide binding assays, cells were incubated with increasing concentrations of fluorescein-conjugated peptides for 2 hours on ice. Samples were washed twice and analyzed on Guava easyCyte 8HT flow cytometer.

The target in series [3] is extracellular HER2 domain (Homo sapiens, UniProt P04626). The note with it: reported by Berezov et al., recombinant soluble HER2 protein; cited from earlier work.
Series [4] relates to NCI-H929 myeloma cells (VLA-4 expressing). Briefly: Cell-based peptide binding assay (NCI-H929). The conditions noted are these: fluorescein labeled peptide, flow cytometry, read-out: apparent Kd. Here is the method: as §1
Receptor Expression Analysis and Cell-Based Peptide Binding Assays. For VLA-4 expression assays, cells were incubated with anti-CD49d (phycoerythrin) or anti-CD29 (fluorescein) antibodies (BD Biosciences, San Jose, Calif.) in binding buffer (1.5% BSA in PBS pH 7.4) on ice for 1 hour and were washed twice. For HER2 expression assays, cells were incubated with primary antibody in binding buffer on ice for 1 hour and washed twice. Fluorescein conjugated secondary antibody was added for 1 hour on ice, samples were washed, and analyzed on Guava easyCyte 8HT flow cytometer (Millipore). Isotype matched antibodies were used as negative controls. […] Samples were washed twice and analyzed on Guava easyCyte 8HT flow cytometer.
Background: In flow cytometry, cells or beads pass a laser one at a time.

Series [5] deals with MM.1S myeloma cells (VLA-4 expressing). The experiment in a line: Cell-based peptide binding assay (MM.1S). The note with it: fluorescein labeled peptide, MM.1S cells, flow cytometry; read-out: apparent Kd. Here is the method: Receptor Expression Analysis and Cell-Based Peptide Binding Assays. For VLA-4 expression assays, cells were incubated with anti-CD49d (phycoerythrin) or anti-CD29 (fluorescein) antibodies (BD Biosciences, San Jose, Calif.) in binding buffer (1.5% BSA in PBS pH 7.4) on ice for 1 hour and were washed twice. For HER2 expression assays, cells were incubated with primary antibody in binding buffer on ice for 1 hour and washed twice. Fluorescein conjugated secondary antibody was added for 1 hour on ice, samples were washed, and analyzed on Guava easyCyte 8HT flow cytometer (Millipore). Isotype matched antibodies were used as negative controls. For cell-based peptide binding assays, cells were incubated with increasing concentrations of fluorescein-conjugated peptides for 2 hours on ice. Samples were washed twice and analyzed on Guava easyCyte 8HT flow cytometer.

In series [6] the test system is VLA-4-overexpressing multiple myeloma cells. The experiment in a line: In vitro nanoparticle uptake, result stated jointly for the myeloma lines. The series is classed as cell-based. The note with it: competition experiment, NCI-H929 and MM.1S. How it is done: In Vitro Liposome Uptake and Binding Assays. 1×10^5 cells/well were plated 24 hours prior to each experiment in a 24 well dish. Liposomes were added at 100 μM phospholipid concentration and incubated for 3 hours at 37° C. 0.2% fluorescein PE was added as a fluorescent marker to each liposomal formulation. For adherent cells, after incubation, cells were washed 3 times with PBS, trypsinized, and analyzed via flow cytometry. For suspension cells, after incubation, cells were washed 3 times with PBS and analyzed via flow cytometry. For binding assays, adherent cells were scraped from the surface of a confluent dish, placed in growth media, and incubated on ice for 30 minutes. Liposomes were added at variable concentrations and incubated for 2 hours on ice. After incubation, cells were washed 3 times with PBS and analyzed via flow cytometry.
In Vitro Nanoparticle Uptake Assays. 1×10^5 cells/well were plated 24 hours prior to each experiment in a 24 well dish. Nanoparticles were added at 100 μM phospholipid concentration and incubated for 3 hours at 37° C. […] For suspension cells, after incubation, cells were washed 3 times with PBS and analyzed via flow cytometry. For adherent cells, after incubation, cells were washed 3 times with PBS, trypsinized, and analyzed via flow cytometry.

With `CC(C)C[C@H](NC(=O)[C@H](Cc1ccccc1)NC(=O)c1cnccn1)B(O)O` [free bortezomib, bortezomib], the “systemic toxicity” value in series [1] was “moribundity on day 7; also recorded: moribundity by day 7”.

Consider YCDGFYACYMDV [HER2-pep], for which the “binding to MCF7 cells” value in series [2] was “minimal binding”. For the same compound, the Kd in series [3] was 150 nM.

For YCDPC [VLA4-pep], the Kd in series [4] (listed as VLA4pep) was 250 nM; in series [4], ~250 nM; in series [5], 250 nM. In addition, in series [6] (LPVLA4pep(K3)), the “inhibition of uptake of VLA-4-targeted liposomes by excess free peptide” value is “efficient inhibition of uptake”. Besides, the “inhibition of uptake of VLA-4-targeted micelles by free peptide” value in series [6] (micelles with VLA4pep(K3)) is given as “significant inhibition”.
